Assay results reported in patent US20240009191A1, “METHOD AND COMPOSITION FOR THE TREATMENT OF DISEASE” (DIMERIX BIOSCIENCE PTY LTD, priority 2019, published 2024).

Legend:
AT1R and CXCR2 = biological target: T1, AT1R and CXCR2 (Homo sapiens, UniProt P25025+P30556); test: IP1 accumulation, HEK293 cells transiently-transfected with AT1R and CXCR2; assay type: cell-based
T1 sequence (P30556 1-359): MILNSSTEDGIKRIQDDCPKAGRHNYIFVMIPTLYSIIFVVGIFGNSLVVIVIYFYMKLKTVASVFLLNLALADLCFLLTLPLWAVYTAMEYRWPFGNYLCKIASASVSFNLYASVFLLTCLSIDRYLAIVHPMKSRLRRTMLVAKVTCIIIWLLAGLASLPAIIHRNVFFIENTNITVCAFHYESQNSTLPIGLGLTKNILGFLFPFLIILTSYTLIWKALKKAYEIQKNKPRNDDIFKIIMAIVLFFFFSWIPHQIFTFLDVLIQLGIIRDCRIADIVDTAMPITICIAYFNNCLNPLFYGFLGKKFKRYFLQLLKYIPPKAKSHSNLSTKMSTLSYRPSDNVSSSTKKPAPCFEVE
T1 sequence (P25025 1-360): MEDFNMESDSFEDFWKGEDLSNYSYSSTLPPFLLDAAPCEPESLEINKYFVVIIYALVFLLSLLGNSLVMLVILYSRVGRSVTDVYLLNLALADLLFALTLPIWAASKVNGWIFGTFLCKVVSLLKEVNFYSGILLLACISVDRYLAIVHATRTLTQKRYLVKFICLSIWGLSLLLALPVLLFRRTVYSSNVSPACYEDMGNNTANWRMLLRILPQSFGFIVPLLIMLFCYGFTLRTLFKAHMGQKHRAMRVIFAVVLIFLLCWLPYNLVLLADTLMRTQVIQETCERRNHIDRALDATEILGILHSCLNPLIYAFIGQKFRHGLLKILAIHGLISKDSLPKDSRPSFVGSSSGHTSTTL
Experimental: Referring now to FIG. 2, Receptor activation of the phospholipase C pathway was detected through the measurement of D-myo-Inositol 1-Phosphate (IP1) by competitive immunoassay (IP-one—Gq Kit, Cisbio 62IPAPEC). Human Embryonic Kidney (HEK) 293 cells were transiently transfected in suspension with the AGTR1 vector (Origene RC212008) alone or co-transfected with the CXCR2 vector (Origene Cat RC207794) using FuGene™ HD reagent (Promega E2311). […] Agonists were prepared in a threefold serial dilution in stimulation buffer+0.1% BSA and added to the assay to give the appropriate final concentration-response curves, and co-stimulation at a single concentration as required. An IP1 standard curve was also constructed in 14 μl Stimulation Buffer+0.1% BSA. Incubations were conducted for 90 min at 37° C., 5% CO2, after which 3 μl IP1-d2 Reagent and 3 μl IP1 Tb Cryptate Antibody (Cisbio 62IPAPEC), in Lysis & Detection buffer, were added to each well for 60 min at room temperature. Plates were read on a HTRF® compatible reader (PHERAstar™, BMG Labtech), using 337 nm excitation and collecting donor/acceptor emission at 620 nm and 665 nm. A standard curve was plotted to interpolate unknown HTRF ratio (665/620×10 000) measurements as IP1 concentration (nM). […]

AT1R-CXCR2 heteromer = biological target: T2, AT1R-CXCR2 heteromer (Homo sapiens, UniProt P25025+P30556); test: BRET trafficking of AT1R/Rluc8 (Venus/Kras, Rab5) with unlabelled CXCR2, pre-treatment with vehicle or antagonists/inverse agonists; assay type: cell-based; conditions: pre-treatment with vehicle, 100 nM AngII only or with 10 nM CXCL8
T2 sequence (P30556 1-359): T1 sequence (P30556 1-359)
T2 sequence (P25025 1-360): T1 sequence (P25025 1-360)
Experimental: HEK293FT cells were seeded in 6-well plates at a density of approximately 700,000 cells/well and maintained at 37° C., 5% CO2 in Complete Media (DMEM containing 0.3 mg/ml glutamine, 100 IU/ml penicillin and 100 μg/ml streptomycin (Gibco/Thermo Fisher)) supplemented with 10% fetal calf serum (FCS; Bovogen). Transient transfections were carried out 24 h after seeding using FuGene6™ (Promega) according to manufacturer instructions. 24 h post-transfection, cells were washed with PBS, detached using 0.05% trypsin/0.53 mM EDTA, resuspended in HEPES-buffered phenol red free Complete Media containing 5% FCS and added to a poly-L-lysine-coated white 96-well microplate (Greiner Bio-One). 48 h post-transfection, bioluminescence resonance energy transfer (BRET) assays were carried out following pre-incubation of cells with EnduRen™ (Promega) at a final concentration of 30 μM, at 37° C., 5% CO2 for 2 h. BRET measurements were taken at 37° C. using the LUMlstar™ or CLARIOstar™ (BMG Labtech).
For antagonist/inverse agonist assays, cells were pre-incubated with EnduRen for 1.5 hours, followed by the addition of vehicle or antagonists/inverse agonists (10 μM) for another 30 minutes.
The BRET signal observed between interacting proteins is normalized by subtracting the background BRET ratio. […] In the following examples, the second calculation will be used and the signal is described as ligand-induced BRET′. Furthermore, for data shown in FIGS. 4 to 20, all data points in a given set are corrected relative to the final data point prior to agonist treatment, which is fixed to zero. In keys on FIGS. 7 to 20, “>” means “followed by after 50 minutes”, with agonists added at time zero on the x-axes.
Prior to agonist treatment (added at 0 minutes), a baseline BRET signal was recorded for each of the combinations for 20 minutes. Data were calculated as ligand-induced BRET relative to the ‘vehicle followed by vehicle’ (veh>veh) data set.

Which results are given for Angiotensin II [AngII]?
Rmax, IP1 accumulation (AT1R and CXCR2): 567 nM; proximity of AT1R/Rluc8 to Venus/Kras (BRET) (AT1R-CXCR2 heteromer; FIG. 19A, 19B): marked reduction; proximity of AT1R/Rluc8 to Venus/Rab5 (BRET) (AT1R-CXCR2 heteromer; FIG. 20A, 20B): marked increase
